In brackets after ≈: the same amount, converted by molar mass.

The subject of one series is E. Faecium (EFAE 12712). Kind of series: MIC, agar dilution. The class given is cell-based. The note with it: Enterococcus faecium, E. Faecium 12712, overnight at 35° C. As to the method: (§1) The in vitro MICs of test compounds were determined by a standard agar dilution method. A stock drug solution of each analog was prepared in the preferred solvent, usually DMSO:H2O (1:3). Serial 2-fold dilutions of each sample are made using 1.0 ml aliquots of sterile distilled water. To each 1.0 ml aliquot of drug was added 9 ml of molten Mueller Hinton agar medium. The drug-supplemented agar was mixed, poured into 15×100 mm petri dishes, and allowed to solidify and dry prior to inoculation.
(§2) Vials of each of the test organisms are maintained frozen in the vapor phase of a liquid nitrogen freezer. Test cultures are grown overnight at 35° C. on the medium appropriate for the organism. Colonies are harvested with a sterile swab, and cell suspensions are prepared in Trypticase Soy broth (TSB) to equal the turbidity of a 0.5 McFarland standard. A 1:20 dilution of each suspension was made in TSB. The plates containing the drug supplemented agar are inoculated with a 0.001 ml drop of the cell suspension using a Steers replicator, yielding approximately 10^4 to 10^5 cells per spot. The plates are incubated overnight at 35° C.
(§3) Following incubation the Minimum Inhibitory Concentration (MIC μg/ml), the lowest concentration of drug that inhibits visible growth of the organism, was read and recorded.

The test system of series [1] is H. influenzae (HINF 30063). In words: MIC, agar dilution. The note with it: Haemophilus influenzae, H. influenzae 30063, overnight at 35° C. The class given is cell-based. As to the method: as §1, §2, §3
For another series, the system named is E. Faecalis (EFAE 9217). Kind of series: MIC, agar dilution. The class given is cell-based. The note with it: Enterococcus faecalis, E. Faecalis 9217, overnight at 35° C. As to the method:
as §1, §2, §3
On the technique in general: Agar dilution tests growth on a series of plates holding different concentrations.

The subject of a further series is S. pyogenes (SPYO 152). In words: MIC, agar dilution. The class given is cell-based. The following applies: Streptococcus pyogenes, S. pyogenes 152, overnight at 35° C. As to the method: as §1, §2, §3
A further series deals with S. aureus (SAUR 9213). Kind of series: MIC, agar dilution. The class given is cell-based. The note with it: Staphylococcus aureus, S. aureus 9213, overnight at 35° C. As to the method: as §1, §2, §3
A further series concerns S. aureus (SAUR 31583). Kind of series: MIC, agar dilution. The note with it: Staphylococcus aureus, S. aureus 31583, overnight at 35° C. Type of series: cell-based. As to the method:
as §1, §2, §3

The test system of series [2] is S. epidermidis (SEPI 30593). In words: MIC, agar dilution. Type of series: cell-based. The following applies: Staphylococcus epidermidis, S. epidermidis 30593, overnight at 35° C. On the procedure:
as §1, §2, §3

For another series, the system named is S. pneumonia (SPNE 9912). Kind of series: MIC, agar dilution. The note with it: S. pneumonia 9912, overnight at 35° C. The class given is cell-based. As to the method:
as §1, §2, §3

In series [3] the test system is H. influenzae (HINF 31810). Kind of series: MIC, agar dilution. The class given is cell-based. The note with it: Haemophilus influenzae, H. influenzae 31810, overnight at 35° C. On the procedure: as §1, §2, §3
In series [4] the test system is M. catarrhalis (MCAT 30607). Kind of series: MIC, agar dilution. The note with it: Moraxella catarrhalis, M. catarrhalis 30607, overnight at 35° C. Type of series: cell-based. On the procedure:
as §1, §2, §3

In the case of `CN(C)Cc1ccc(OCC(=O)N2CCN(c3ccc(N4C[C@H](CNC(=S)C5CC5)OC4=O)cc3F)CC2)cc1` [Compound 2], the MIC is 1 µg/mL (≈ 1.76 µM) against E. Faecium (EFAE 12712); 16 µg/mL (≈ 28.1 µM) in series [1]; 1 µg/mL (≈ 1.76 µM) with E. Faecalis (EFAE 9217); 0.125 µg/mL (≈ 0.219 µM) in the series on S. pyogenes (SPYO 152); 2 µg/mL (≈ 3.51 µM) against S. aureus (SAUR 9213); 4 µg/mL (≈ 7.02 µM) against S. aureus (SAUR 31583). Further, the MIC in series [2] is 1 µg/mL (≈ 1.76 µM); in the series on S. pneumonia (SPNE 9912), 0.125 µg/mL (≈ 0.219 µM); in series [3] it was 8 µg/mL (≈ 14 µM); in series [4], 2 µg/mL (≈ 3.51 µM).

Take `CCN(CC)Cc1ccc(OCC(=O)N2CCN(c3ccc(N4C[C@H](CNC(C)=O)OC4=O)cc3F)CC2)cc1` [Compound 8]: the MIC was 32 µg/mL (≈ 57.6 µM) against E. Faecium (EFAE 12712); above 64 µg/mL in [1]; 32 µg/mL (≈ 57.6 µM) against E. Faecalis (EFAE 9217); 2 µg/mL (≈ 3.6 µM) in the series on S. pyogenes (SPYO 152); 32 µg/mL (≈ 57.6 µM) against S. aureus (SAUR 9213); above 64 µg/mL against S. aureus (SAUR 31583). The MIC is 8 µg/mL (≈ 14.4 µM) in [2], 2 µg/mL (≈ 3.6 µM) in the series on S. pneumonia (SPNE 9912), above 64 µg/mL in series [3] and 32 µg/mL (≈ 57.6 µM) in [4].

Take `CCC(=S)NC[C@H]1CN(c2ccc(N3CCN(C(=O)COc4ccc(CN5CCN(C)CC5)cc4)CC3)c(F)c2)C(=O)O1` [Compound 22]: the MIC against E. Faecium (EFAE 12712) turned out to be 2 µg/mL (≈ 3.26 µM); in series [1], 32 µg/mL (≈ 52.2 µM); in the series on S. pyogenes (SPYO 152), 0.25 µg/mL (≈ 0.408 µM); against S. aureus (SAUR 9213), 8 µg/mL (≈ 13.1 µM); against S. aureus (SAUR 31583) it was 32 µg/mL (≈ 52.2 µM); in series [2] it was 2 µg/mL (≈ 3.26 µM). The MIC against S. pneumonia (SPNE 9912) worked out at 0.125 µg/mL (≈ 0.204 µM); in series [3], 16 µg/mL (≈ 26.1 µM); in [4], 2 µg/mL (≈ 3.26 µM).

On to `CN1CCN(Cc2ccc(OCC(=O)N3CCN(c4ccc(N5C[C@H](CNC(=S)C6CC6)OC5=O)cc4F)CC3)cc2)CC1` [Compound 23], for which the MIC against E. Faecium (EFAE 12712) was 8 µg/mL (≈ 12.8 µM); in [1], 64 µg/mL (≈ 102 µM); against S. pyogenes (SPYO 152), 0.5 µg/mL (≈ 0.8 µM); against S. aureus (SAUR 9213), 16 µg/mL (≈ 25.6 µM); in the series with S. aureus (SAUR 31583), above 64 µg/mL; in series [2] it was 8 µg/mL (≈ 12.8 µM). Moreover, the values for the MIC (with S. pneumonia (SPNE 9912); in series [3]; in [4]) were 0.5 µg/mL (≈ 0.8 µM), 64 µg/mL (≈ 102 µM) and 32 µg/mL (≈ 51.2 µM), respectively.

Turning to `CC(=O)NC[C@H]1CN(c2ccc(N3CCN(C(=O)COc4ccc(CN5CCN(C)CC5)cc4)CC3)c(F)c2)C(=O)O1` [Compound 24], the MIC against E. Faecium (EFAE 12712) was determined as 2 µg/mL (≈ 3.43 µM); in [1], 32 µg/mL (≈ 54.9 µM); against S. pyogenes (SPYO 152) it was 0.25 µg/mL (≈ 0.429 µM); with S. aureus (SAUR 9213), 4 µg/mL (≈ 6.86 µM); with S. aureus (SAUR 31583), 16 µg/mL (≈ 27.5 µM); in series [2] it was 2 µg/mL (≈ 3.43 µM). In addition, the MIC with S. pneumonia (SPNE 9912) came out at 0.125 µg/mL (≈ 0.215 µM); in series [3], 16 µg/mL (≈ 27.5 µM); in series [4] it was 2 µg/mL (≈ 3.43 µM).

As a reminder, the melting point is the temperature of the solid-liquid transition. `CCC(=S)NC[C@H]1CN(c2ccc(N3CCN(C(=O)COc4ccc(CN(CC)CC)cc4)CC3)c(F)c2)C(=O)O1` [Example 1, N-[((5S)-3-{4-[4-({4-[(Diethylamino)methyl]phenoxy}acetyl)piperazin-1-yl]-3-fluorophenyl}-2-oxo-1,3-oxazolidin-5-yl)methyl]propanethioamide]: the melting point came out at 98 °C.

Turning to `CCC(=S)NC[C@H]1CN(c2ccc(N3CCN(C(=O)COc4ccc(CN(C)C)cc4)CC3)c(F)c2)C(=O)O1` [Example 4, N-[((5S)-3{4-[4-({4-[(Dimethylamino)methyl]phenoxy}acetyl)piperazin-1-yl]-3-fluorophenyl}-2-oxo-1,3-oxazolidin-5-yl)methyl]propanethioamide], the melting point is 163 to 164 °C.

With `CCC(=S)NC[C@H]1CN(c2ccc(N3CCN(C(=O)COc4ccc(CN5CCOCC5)cc4)CC3)c(F)c2)C(=O)O1` [Example 7, N-({(5S)-3-[3-Fluoro-4-(4-{[4-(morpholin-4-ylmethyl)phenoxy]acetyl}piperazin-1-yl)phenyl]-2-oxo-1,3-oxazolidin-5-yl}methyl)propanethioamide], the melting point was in the range of 159 to 160 °C.

`CN(C)Cc1ccc(C(=O)CCC(=O)N2CCN(c3ccc(N4C[C@H](CNC(=S)C5CC5)OC4=O)cc3F)CC2)cc1` [Example 14, N-[((5S)-3-{4-[4-(4-{4-[(Dimethylamino)methyl]phenyl}-4-oxobutanoyl)-1-piperazinyl]-3-fluorophenyl}-2-oxo-1,3-oxazolidin-5-yl)methyl]cyclopropanecarbothioamide]: the melting point lay in the range of 174 to 175 °C.

On to `CC(=O)NC[C@H]1CN(c2ccc(N3CCN(C(=O)CCC(=O)c4ccc(CN(C)C)cc4)CC3)c(F)c2)C(=O)O1` [Example 15, N-[((5S)-3-{4-[4-(4-{4-[(Dimethylamino)methyl]phenyl}-4-oxobutanoyl)-1-piperazinyl]-3-fluorophenyl}-2-oxo-1,3-oxazolidin-5-yl)methyl]acetamide], for which the melting point is 190 to 192 °C.

The compound `CCC(=S)NC[C@H]1CN(c2ccc(N3CCN(C(=O)CCC(=O)c4ccc(CN5CCOCC5)cc4)CC3)c(F)c2)C(=O)O1` [Example 16, N-({(5S)-3-[3-Fluoro-4-(4-{4-[4-(4-morpholinylmethyl)phenyl]-4-oxobutanoyl}-1-piperazinyl)phenyl]-2-oxo-1,3-oxazolidin-5-yl}methyl)propanethioamide] yielded a melting point of 160 °C.

`CC(=O)NC[C@H]1CN(c2ccc(N3CCN(C(=O)CCC(=O)c4ccc(CNC(=O)CN(C)C)cc4)CC3)c(F)c2)C(=O)O1` [Example 22, N^1-(4-{4-[4-(4-{(5S)-5-[(Acetylamino)methyl]-2-oxo-1,3-oxazolidin-3-yl}-2-fluorophenyl)piperazin-1-yl]-4-oxobutanoyl}benzyl)-N^2,N^2-dimethylglycinamide]: the melting point was in the range of 160 to 160.5 °C.

Regarding `COc1ccc(CCCC(=O)N2CCN(c3ccc(N4C[C@H](CNC(C)=O)OC4=O)cc3F)CC2)cc1` [Example 41, N-{[(5S)-3-(3-Fluoro-4-{4-[4-(4-methoxyphenyl)butanoyl]piperazine-1-yl}phenyl)-2-oxo-1,3-oxazolidin-5-yl]methyl}acetamide], the melting point was in the range of 164 to 165 °C.

For the compound `CC(=O)NC[C@H]1CN(c2ccc(N3CCN(C(=O)CCCc4ccc(O)cc4)CC3)c(F)c2)C(=O)O1` [Example 42, N-{[(5S)-3-(3-Fluoro-4-{4-[4-(4-hydroxyphenyl)butanoyl]piperazin-1-yl}phenyl)-2-oxo-1,3-oxazolidin-5-yl]methyl}acetamide], the melting point is 119 to 120 °C (dec.).

Regarding `CC(=O)NC[C@H]1CN(c2ccc(N3CCN(C(=O)CCC(=O)c4ccc(Br)cc4)CC3)c(F)c2)C(=O)O1` [Example 44, N-{[(5S)-3-(4-{4-[4-(4-Bromophenyl)-4-oxobutanoyl]-1-piperazinyl}-3-fluorophenyl)-2-oxo-1,3-oxazolidin-5-yl]methyl}acetamide], the melting point lay within 197 to 198 °C.

The compound `CC(=O)NC[C@H]1CN(c2ccc(N3CCN(C(=O)CCC(=O)c4ccc(Cl)cc4)CC3)c(F)c2)C(=O)O1` [Example 49, N-{[(5S)-3-(4-{4-[4-(4-Chlorophenyl)-4-oxobutanoyl]-1-piperazinyl}-3-fluorophenyl)-2-oxo-1,3-oxazolidin-5-yl]methyl}acetamide] came in with a melting point of 208 to 209 °C.

For the compound `CC(=S)NC[C@H]1CN(c2ccc(N3CCN(C(=O)CCC(=O)c4ccc(Cl)cc4)CC3)c(F)c2)C(=O)O1` [Example 50, N-{[(5S)-3-(4-{4-[4-(4-chlorophenyl)-4-oxobutanoyl]-1-piperazinyl}-3-fluorophenyl)-2-oxo-1,3-oxazolidin-5-yl]methyl}ethanethioamide], the melting point was 215 to 216 °C (dec.).

Regarding `CC(=O)NC[C@H]1CN(c2ccc(N3CCN(C(=O)CCCc4ccc(NC(=O)CN)cc4)CC3)c(F)c2)C(=O)O1` [Example 60, N-(4-{4-[4-(4-{(5S)-5-[(Acetylamino)methyl]-2-oxo-1,3-oxazolidin-3-yl}-2-fluorophenyl)-1-piperazinyl]-4-oxobutyl}phenyl)-2-aminoacetamide], the melting point was 199 to 200 °C (dec.).

On to `CC(=O)NC[C@H]1CN(c2ccc(N3CCN(C(=O)CN4C(=O)c5ccc(N)cc5C4=O)CC3)c(F)c2)C(=O)O1` [Example 70, N-{[(5S)-3-(4-{4-[(5-Amino-1,3-dioxo-1,3-dihydro-2H-isoindol-2-yl)acetyl]piperazin-1-yl}-3-fluorophenyl)-2-oxo-1,3-oxazolidin-5-yl]methyl}acetamide], for which the melting point was 241 to 243 °C (dec.).

Source of the values: patent US7141570B2, “N-aryl-2-oxazolidinone-5-carboxamides and their derivatives” (Pharmacia & Upjohn Company, priority 2002, dated 2006).
